A word on the EC50: it is the concentration at which the effect is half-maximal.

One experiment deals with recombinant Wee1 protein (Homo sapiens (Human), UniProt P30291). The experiment in a line: Wee1 enzymatic activity inhibition, ADP-Glo luminescence assay. Format: biochemical. The note with it: recombinant Wee1, PolyE4Y1 substrate, 1 h room temperature. The procedure:
Example A. Primary Assay Used to Determine Potency of Wee1 Enzymatic Activity Inhibition
Compound activity was determined using recombinant Wee1 protein (BPS, Cat #40412) and PolyE4Y1 Substrate (Poly(Glu,Tyr) sodium salt, Sigma, Cat #P0275-25MG) in an in vitro enzymatic reaction. The enzymatic assay used to determine activity was a Luminescence assay using a Microplate Reader (BMG, ClarioStar Plus). The enzymatic reaction was carried out in assay buffer (40 mM TRIS-HCl pH 7.4-7.6, 20 mM MgCl2, 0.05 mM DTT, 0.1 mg/ml BSA, 5 mM MnCl2). The compounds were dispensed on a 384 well Diamond Well Plate (Axigen, Cat #P-384-120SQ-C-S) using the Biomek FX liquid handling system at 100× solutions of compounds in DMSO. 2×Wee1-PolyE4Y1 mix (final concentration 0.85 ng/μl of Wee1 and 0.2 μg/μl of PolyE4Y1) was prepared in 1× Assay buffer and 5.5 μl of mixture per well was added into 384w white Reaction plate with NBS (Corning, Cat #4513). 5.5 μl of PolyE4Y1 substrate w/o Wee1 in 1× buffer was used for negative control. Plates were centrifuged for 1 min at 100 g. Next step the Compounds were added to Reaction plate using Biomek station via following steps: 1 μl of 100× compounds (in DMSO) were mixed thoroughly with 49 μl of 2×10 μM ATP in Assay Buffer, then 5.5 μl of this mixture was added to Reaction plate with 5.5 μl of Wee1-PolyE4Y1 mix. Plates were centrifuged for 1 min at 100 g and incubated for 1 h at room temperature. Next 3 μL of ADP-Glo reagent (Promega, ADP-Glo™ Kinase Assay, Cat #V9102) per well was added. Plates were incubated for 30 minutes at room temperature. Then 6 μL of Kinase detection reagent (Promega, ADP-Glo™ Kinase Assay, Cat #V9102) per well was added and the Luminescence was measured using Microplate Reader. The % inhibition was then used to calculate the IC50 values. The IC50 values are shown in Table A, wherein “A” corresponds to IC50<0.01 μM, “B” corresponds to 0.01 μM≤IC50<0.1 μM, “C” 0.1 μM≤IC50<1 μM, and “D” corresponds to […].
(In general: ADP-Glo first removes unused ATP, then detects ADP through luciferase.)

For experiment [1], the target named is recombinant PARP1 (AA662-1014) protein (Homo sapiens (Human), UniProt P09874). The experiment in a line: Tracer displacement fluorescence polarization assay. The note with it: displacement of AlexaFluor488 tracer from NAD+-binding site, PARP1 25 nM. The procedure:
Example B. Tracer Displacement Fluorescence Polarization Assays
Displacement of AlexaFlour488 marked tracer from the NAD+-binding site of recombinant PARP1 (AA662-1014) protein (OriGene, Cat #: AR09368PU-L) was measured in vitro using Fluorescence polarization assay. The reaction was carried out in assay buffer (50 mM TRIS-HCl pH 7.4-7.8, 150 mM NaCl, 10 mM MgCl2, 0.001% Triton-X). 2×PARP1 (final concentration 25 nM) was diluted in 1× Assay buffer and 10 μl of the solution per well was added into 384-well Black Non-Treated Reaction plate (Corning, Cat #4511). Plates were centrifuged for 1 min at 200 g. The compounds were prepared in a 384-well Diamond Well Plate (Axygen, Cat #P-384-120SQ-C-S) as 400× solutions in DMSO and were transferred into Reaction plate using the Biomek FX liquid handling system with intermediate dilution down to 10× working solution in assay buffer in a separate 384-well Diamond Well Plate (Axygen, Cat #P-384-120SQ-C-S) (2 μl per well). Plates were centrifuged for 1 min at 200 g and incubated for 15 min at room temperature in the dark. Then 8 μL per well of 2.5× Tracer AlexaFluor488 (final concentration 1 nM) diluted in 1× Assay buffer was added into Reaction plate. 1× Assay buffer was used to make blank samples for instrument calculations. Plates were incubated for 30 minutes at room temperature in the dark. Fluorescence polarization was measured using Microplate Reader (BMG, ClarioStar Plus). The % tracer displacement was used to calculate the IC50 values. The IC50 values are shown in Table A, wherein “A” corresponds to IC50<0.01 μM, “B” corresponds to 0.01 μM≤IC50<0.1 μM, “C” 0.1 μM≤IC50<[…], and “D” corresponds to […].

The subject of the next experiment is MDA-MB-231. The experiment can be described thus: Cellular growth inhibition assay (CellTiter-Glo). Format: cell-based. The conditions noted are these: Homo sapiens. On the procedure:
Example E. Cellular Growth Inhibition Assay
HEK293 (Institute of Cytology Russian Academy of Science), MDA-MB-231 (ATCC, CRM-HTB-26), HCC1395 (ATCC, CRL-2324), HCC1937 (ATCC, CRL-2336), UWB1.289+BRCA1 (ATCC, CRL-2946) were seeded at a density of 500 cells per well in a 384-well clear bottom plate (Greiner Cat #781090) in 45 μl total volume of DMEM (PanEco, Cat #C420) or RPMI (PanEco, Cat #C330) or RPMI/MEBM (Lonza, Cat #CC-3151+CC-4136) with 10% FBS (HyClone, Cat #SV30160.03). Cells were allowed to adhere overnight at 370 C, 5% CO2. 500× compounds solutions in DMSO (Sigma Cat #D2650) were prepared into Cmpnds plate (Diamond Well Plate, Axigen, Cat #P-384-120SQ-C-S) and DMSO only control was included. 1 μl of 500× compounds (Cmpnds plate) was added to 49 μl of culture medium into Dilution plate (Diamond Well Plate, Axigen, Cat #P-384-120SQ-C-S), mixed and then 5 μl of 10× compounds solutions were transferred to cells followed by centrifugation at 100 g for 1 min. Final DMSO concentration was 0.2%. After 3 days of incubation, 10 μl of 1× compounds were added to cells. […]
In general terms: Cellular ATP, detected with luciferase, serves as a proxy for viable cell number.

Setting [2] is: 120 h, MDA-MB-231, 5 days, read-out: MDA-MB-231 EC50 (μM) 5 days.
[3] abbreviates: 168 h, MDA-MB-231, 7 days, read-out: MDA-MB-231 EC50 (μM) 7 days.
Where [4] appears, read: 240 h, MDA-MB-231, 10 days, read-out: MDA-MB-231 EC50 (μM) 10 days.

Each structure is given as a SMILES string. Where two headings read alike, the source gives them in different places.

Chain of recombinant Wee1 protein (P30291 whole entry): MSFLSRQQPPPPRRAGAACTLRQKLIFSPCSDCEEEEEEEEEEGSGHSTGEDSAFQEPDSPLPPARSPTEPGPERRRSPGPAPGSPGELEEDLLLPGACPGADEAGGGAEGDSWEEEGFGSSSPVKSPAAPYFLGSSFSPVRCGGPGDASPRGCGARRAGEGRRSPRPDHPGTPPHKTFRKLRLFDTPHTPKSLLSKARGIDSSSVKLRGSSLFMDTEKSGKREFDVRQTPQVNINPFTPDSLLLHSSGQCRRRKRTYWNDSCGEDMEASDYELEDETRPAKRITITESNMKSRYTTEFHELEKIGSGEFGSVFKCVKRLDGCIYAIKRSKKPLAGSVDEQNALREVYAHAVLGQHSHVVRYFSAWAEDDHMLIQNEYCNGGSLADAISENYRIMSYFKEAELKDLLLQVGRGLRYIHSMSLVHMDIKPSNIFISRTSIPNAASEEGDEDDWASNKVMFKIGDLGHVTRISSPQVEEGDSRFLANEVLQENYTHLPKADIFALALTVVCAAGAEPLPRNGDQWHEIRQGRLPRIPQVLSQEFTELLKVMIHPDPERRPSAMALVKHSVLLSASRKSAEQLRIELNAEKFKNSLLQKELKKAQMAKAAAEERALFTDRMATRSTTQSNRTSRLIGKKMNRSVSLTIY
Chain of recombinant PARP1 (AA662-1014) protein (P09874 662-1014): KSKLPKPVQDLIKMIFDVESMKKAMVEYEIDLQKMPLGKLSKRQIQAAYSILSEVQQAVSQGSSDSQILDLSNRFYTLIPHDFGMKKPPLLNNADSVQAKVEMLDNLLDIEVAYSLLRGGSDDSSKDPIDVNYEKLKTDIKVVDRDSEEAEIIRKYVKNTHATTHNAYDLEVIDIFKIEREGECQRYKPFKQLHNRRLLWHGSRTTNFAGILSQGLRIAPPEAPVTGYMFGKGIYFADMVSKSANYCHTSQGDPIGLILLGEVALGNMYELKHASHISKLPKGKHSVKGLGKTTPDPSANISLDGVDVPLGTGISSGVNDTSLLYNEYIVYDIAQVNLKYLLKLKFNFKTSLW

Regarding `Cn1c(=O)c2cnc(Nc3ccc(N4CCN(C(=O)c5cc(Cc6n[nH]c(=O)c7ccccc67)ccc5F)CC4)cc3)nc2n1-c1ccccn1` [Compound 3, 4-{4-Fluoro-3-[(4-{4-[(2-methyl-3-oxo-1-pyridin-2-yl-2,3-dihydro-1H-pyrazolo[3,4-d]pyrimidin-6-yl)amino]phenyl}piperazin-1-yl)carbonyl]benzyl}phthalazin-1(2H)-one], the concentration giving a half-maximal response (EC50) was 100 to 1000 nM at recombinant Wee1 protein, < 10 nM in experiment [1] and 3.75 µM in the experiment on MDA-MB-231 (setting [2]).

For the compound `C=CCn1c(=O)c2cnc(Nc3ccc(N4CCN(C(=O)c5cc(Cc6n[nH]c(=O)c7ccccc67)ccc5F)CC4)cc3)nc2n1-c1ccccn1` [Compound 10, 4-{3-[(4-{4-[(2-Allyl-3-oxo-1-pyridin-2-yl-2,3-dihydro-1H-pyrazolo[3,4-d]pyrimidin-6-yl)amino]phenyl}piperazin-1-yl)carbonyl]-4-fluorobenzyl}phthalazin-1(2H)-one], the EC50 on recombinant Wee1 protein was 10 to 100 nM; in experiment [1] it was < 10 nM; in the experiment with MDA-MB-231 (setting [2]) it was 4.89 µM; in the experiment on MDA-MB-231 (setting [3]) it was 2.59 µM; in the experiment on MDA-MB-231 (setting [4]), 1.49 µM.

`Cn1c(=O)c2cnc(Nc3ccc(N4CCN(C(=O)c5cc(Cc6n[nH]c(=O)c7ccccc67)ccc5F)CC4)cc3)nc2n1-c1ncccn1` [Compound 11, 4-{4-Fluoro-3-[(4-{4-[(2-methyl-3-oxo-1-pyrimidin-2-yl-2,3-dihydro-1H-pyrazolo[3,4-d]pyrimidin-6-yl)amino]phenyl}piperazin-1-yl)carbonyl]benzyl}phthalazin-1(2H)-one]: the 50% effective concentration (EC50) at recombinant Wee1 protein is 10 to 100 nM; in experiment [1], < 10 nM; with MDA-MB-231 (setting [2]) it was 8.76 µM; in the experiment on MDA-MB-231 (setting [3]) it was 6.28 µM; in the experiment with MDA-MB-231 (setting [4]), 3.6 µM.

Turning to `Cn1c(=O)c2cnc(Nc3ccc(N4CCN(C(=O)c5cc(Cn6c(=O)[nH]c(=O)c7c(F)cccc76)ccc5F)CC4)cc3)nc2n1-c1ccccn1` [Compound 18, 5-Fluoro-1-{4-fluoro-3-[(4-{4-[(2-methyl-3-oxo-1-pyridin-2-yl-2,3-dihydro-1H-pyrazolo[3,4-d]pyrimidin-6-yl)amino]phenyl}piperazin-1-yl)carbonyl]benzyl}quinazoline-2,4(1H,3H)-dione], the concentration giving a half-maximal response (EC50) at recombinant Wee1 protein was 10 to 100 nM; in experiment [1] it was < 10 nM; with MDA-MB-231 (setting [2]), > 10 µM.

With `Cn1c(=O)c2cnc(Nc3ccc(NC(=O)c4cc(Cn5c(=O)[nH]c(=O)c6c(F)cccc65)ccc4F)cc3)nc2n1-c1ccccn1` [Compound 33, 2-Fluoro-5-[(5-fluoro-2,4-dioxo-3,4-dihydroquinazolin-1(2H)-yl)methyl]-N-{4-[(2-methyl-3-oxo-1-pyridin-2-yl-2,3-dihydro-1H-pyrazolo[3,4-d]pyrimidin-6-yl)amino]phenyl}benzamide], the EC50 at recombinant Wee1 protein was 100 to 1000 nM; in experiment [1] it was ≥ 1 nM; in the experiment with MDA-MB-231 (setting [2]) it was > 10 µM.

As for `C=CCn1c(=O)c2cnc(Nc3ccc(N4CCN(Cc5ccc(-c6[nH]c7cc(F)cc8c7c6CCNC8=O)cc5)CC4)cc3)nc2n1-c1cccc(C(C)(C)O)n1` [Compound 35, 2-[4-({4-[4-({2-Allyl-1-[6-(1-hydroxy-1-methylethyl)pyridin-2-yl]-3-oxo-2,3-dihydro-1H-pyrazolo[3,4-d]pyrimidin-6-yl}amino)phenyl]piperazin-1-yl}methyl)phenyl]-8-fluoro-1,3,4,5-tetrahydro-6H-azepino[5,4,3-cd]indol-6-one], the EC50 was 10 to 100 nM at recombinant Wee1 protein; 10 to 100 nM in experiment [1]; 0.98 µM in the experiment with MDA-MB-231 (setting [2]); 0.57 µM in the experiment on MDA-MB-231 (setting [3]); 0.08 µM with MDA-MB-231 (setting [4]).

As to `Cn1c(=O)c2cnc(Nc3ccc(N4CCCC(c5nc6cccc(C(N)=O)c6[nH]5)C4)cc3)nc2n1-c1ccccn1` (centres unmarked) [Compound 96, 2-[1-[4-[[2-methyl-3-oxo-1-(2-pyridyl)pyrazolo[3,4-d]pyrimidin-6-yl]amino]phenyl]-3-piperidyl]-3H-benzimidazole-4-carboxamide], the figures for the EC50 (in experiment [1]; in the experiment with MDA-MB-231 (setting [2])) were 10 to 100 nM and 2.77 µM, respectively.

The values above are taken from US20250270212A1, “CHIMERIC COMPOUNDS USEFUL IN TREATING DISEASES” (Padarn Therapeutics, Inc., priority 2021, published 2025).
